US11840528B2 (Hoffmann-La Roche Inc., priority 2018, dated 2023)

Legend:
h-GABA-A α5β3γ2 [1] = target: T1, h-GABA-A α5β3γ2 (Homo sapiens, UniProt P18507+P31644); experiment: [3H]flumazenil competition binding assay, membranes of HEK293 cells expressing GABAA receptors; settings: displacement of [3H]-Flumazenil 0.5 nM, HEK293 cells expressing human receptors, mean of two determinations; Table 1
Outline: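 Receptor source: human α5β3γ2 transiently transfected into HEK293 cells, membranes in pH 7.5 Krebs-tris. Filtration through GF/C, then scintillation counting.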

h-GABA-A α5β3γ2 [2] = target: T1, h-GABA-A α5β3γ2; experiment: Two-electrode voltage clamp electrophysiology in Xenopus laevis oocytes expressing GABAA receptors, modulation of GABA EC20 current; assay type: cell-based; design: host or cells: Xenopus laevis oocytes micro-injected with RNA transcripts of the subunits; settings: Table 1; for Efficacy (GABA) %: % modulation of GABA EC20 = 100*(Fold increase-1); for Fold increase h-GABA-A α5β3γ2 oocyte: test compound at approx. 30 fold its Ki, GABA at EC20
Outline: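 Modulation is reported as % of the GABA EC20 current, calculated as 100*(Fold increase−1) from the peak ratio between a second GABA response carrying compound (applied at roughly 30-fold Ki) and a preceding control response. Oocytes expressing human α5β3γ2 were clamped at −80 mV at room temperature, 3–5 days after injection.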

Row | SMILES | Ki (h-GABA-A α5β3γ2 [1]) [nM] | Efficacy (GABA) % (h-GABA-A α5β3γ2 [2]) [%] | Fold increase h-GABA-A α5β3γ2 oocyte (h-GABA-A α5β3γ2 [2])
1 | Cc1onc(-c2ccc(Cl)nc2)c1Cn1ncc(N2C[C@@H](C)O[C@@H](C)C2)cc1=O [Example 219, 2-((3-(6-chloropyridin-3-yl)-5-methylisoxazol-4-yl)methyl)-5-((2RS,6SR)-2,6-dimethylmorpholino)pyridazin-3(2H)-one] | 2.6 | 247 | 3.47
2 | CCOC1CN(c2cnn(Cc3c(-c4ccc(Cl)nc4)noc3C)c(=O)c2)C1 [Example 220, 2-((3-(6-chloropyridin-3-yl)-5-methyl-1,2-oxazol-4-yl)methyl)-5-(3-ethoxyazetidin-1-yl)pyridazin-3-one] | 25.3 | 118 | 2.18
3 | CCn1cc(-c2cnn(Cc3c(-c4ccc(Cl)nc4)noc3C)c(=O)c2)cn1 [Example 221, 2-((3-(6-chloropyridin-3-yl)-5-methylisoxazol-4-yl)methyl)-5-(1-ethyl-1H-pyrazol-4-yl)pyridazin-3(2H)-one] | 31.2 | 99 | 1.99
4 | Cc1onc(-c2ccc(Cl)nc2)c1Cn1ncc(-c2cnn(C3CC3)c2)cc1=O [Example 222, 2-((3-(6-chloropyridin-3-yl)-5-methylisoxazol-4-yl)methyl)-5-(1-cyclopropyl-1H-pyrazol-4-yl)pyridazin-3(2H)-one] | 31.2 | 82 | 1.82
5 | Cc1onc(-c2ccc(Cl)nc2)c1Cn1ncc(N2CCN3C(=O)CCC3C2)cc1=O (stereo not drawn) [Example 223, 2-(1-((3-(6-chloropyridin-3-yl)-5-methylisoxazol-4-yl)methyl)-6-oxo-1,6-dihydropyridazin-4-yl)hexahydropyrrolo[1,2-a]pyrazin-6(2H)-one] | 27.6 | 215 | 3.15
6 | Cc1onc(-c2ccc(Cl)nc2)c1Cn1ncc(N2CC(OC3CC3)C2)cc1=O [Example 224, 2-((3-(6-chloropyridin-3-yl)-5-methylisoxazol-4-yl)methyl)-5-(3-cyclopropoxyazetidin-1-yl)pyridazin-3(2H)-one] | 12.8 | 124 | 2.24
7 | Cc1ccc(-c2noc(C)c2Cn2ncc(N3CCC4(CCOCC4)CC3)cc2=O)cn1 [Example 226, 2-((5-methyl-3-(6-methylpyridin-3-yl)isoxazol-4-yl)methyl)-5-(3-oxa-9-azaspiro[5.5]undecan-9-yl)pyridazin-3(2H)-one] | 13 | 95 | 1.95
8 | Cc1onc(-c2ccc(Cl)nc2)c1Cn1ncc(N2CCO[C@@H](C)C2)cc1=O [Example 227, (S)-2-((3-(6-chloropyridin-3-yl)-5-methylisoxazol-4-yl)methyl)-5-(2-methylmorpholino)pyridazin-3(2H)-one] | 4.4 | 149 | 2.49
9 | COc1cc(-c2cnn(Cc3c(-c4ncc(C(F)(F)F)cn4)noc3C)c(=O)c2)ccn1 [Example 228, 5-(2-methoxypyridin-4-yl)-2-((5-methyl-3-(5-(trifluoromethyl)pyrimidin-2-yl)isoxazol-4-yl)methyl)pyridazin-3(2H)-one] | 3.8 | 41 | 1.41
10 | COC1CN(c2cnn(Cc3c(-c4ncc(C(F)(F)F)cn4)noc3C)c(=O)c2)C1 [Example 229, 5-(3-methoxyazetidin-1-yl)-2-((5-methyl-3-(5-(trifluoromethyl)pyrimidin-2-yl)isoxazol-4-yl)methyl)pyridazin-3(2H)-one] | 10 | 81 | 1.81
11 | Cc1onc(-c2ccc(Cl)nc2)c1Cn1ncc(N2CC3(C[C@@H](F)CO3)C2)cc1=O [Example 230, (R)-2-((3-(6-chloropyridin-3-yl)-5-methylisoxazol-4-yl)methyl)-5-(7-fluoro-5-oxa-2-azaspiro[3.4]octan-2-yl)pyridazin-3(2H)-one] | 45.1 | 127 | 2.27
12 | Cc1onc(-c2ccc(Cl)nc2)c1Cn1ncc(N2CC3(C[C@H](F)CO3)C2)cc1=O [Example 232, (S)-2-((3-(6-chloropyridin-3-yl)-5-methylisoxazol-4-yl)methyl)-5-(7-fluoro-5-oxa-2-azaspiro[3.4]octan-2-yl)pyridazin-3(2H)-one] | 37 | 104 | 2.04
13 | Cc1onc(-c2ccc(Cl)nc2)c1Cn1ncc(N2CC3(CCCCO3)C2)cc1=O [Example 233, 2-((3-(6-chloropyridin-3-yl)-5-methylisoxazol-4-yl)methyl)-5-(5-oxa-2-azaspiro[3.5]nonan-2-yl)pyridazin-3(2H)-one] | 33.6 | 82 | 1.82
14 | Cc1ccc(-c2noc(C)c2Cn2ncc(N3CC(OC(C)(C)C)C3)cc2=O)nn1 [Example 234, 5-(3-(tert-butoxy)azetidin-1-yl)-2-((5-methyl-3-(6-methylpyridazin-3-yl)isoxazol-4-yl)methyl)pyridazin-3(2H)-one] | 4.4 | 93 | 1.93
15 | Cc1ccc(-c2noc(C)c2Cn2ncc(N3CC4(CCCCO4)C3)cc2=O)nn1 [Example 235, 2-((5-methyl-3-(6-methylpyridazin-3-yl)isoxazol-4-yl)methyl)-5-(5-oxa-2-azaspiro[3.5]nonan-2-yl)pyridazin-3(2H)-one] | 2.8 | 77 | 1.77
16 | Cc1ccc(-c2noc(C)c2Cn2ncc(N3CC(Oc4ccnc(Cl)c4)C3)cc2=O)nn1 [Example 236, 5-[3-[(2-chloro-4-pyridyl)oxy]azetidin-1-yl]-2-[[5-methyl-3-(6-methylpyridazin-3-yl)isoxazol-4-yl]methyl]pyridazin-3-one] | 2.9 | 136 | 2.36
17 | CO[C@H]1COC2(C1)CN(c1cnn(Cc3c(-c4ccc(C(F)(F)F)nc4)noc3C)c(=O)c1)C2 [Example 237, 5-[(7R)-7-methoxy-5-oxa-2-azaspiro[3.4]octan-2-yl]-2-[[5-methyl-3-[6-(trifluoromethyl)-3-pyridyl]isoxazol-4-yl]methyl]pyridazin-3-one] | 5.8 | 147 | 2.47
18 | Cc1ccc(-c2noc(C)c2Cn2ncc(N3CC(OC4CCC4)C3)cc2=O)nn1 [Example 238, 5-[3-(cyclobutoxy)azetidin-1-yl]-2-[[5-methyl-3-(6-methylpyridazin-3-yl)isoxazol-4-yl]methyl]pyridazin-3-one] | 6.8 | 128 | 2.28
19 | Cc1ccc(-c2noc(C)c2Cn2ncc(N3CC(OC4CC4)C3)cc2=O)nn1 [Example 239, 5-[3-(cyclopropoxy)azetidin-1-yl]-2-[[5-methyl-3-(6-methylpyridazin-3-yl)isoxazol-4-yl]methyl]pyridazin-3-one] | 1 | 67 | 1.67
